According to publication PMC9828437, “Novel hybrids of thiazolidinedione-1,3,4-oxadiazole derivatives: synthesis, molecular docking, MD simulations, ADMET study, in vitro, and in vivo anti-diabetic assessment” (RSC Advances, 2023):
Several values for one entry are separate records, joined by “and”; a condition that tells them apart may be missing. Identical values can stand only once.

Tests used:
[1] = molecular target: α-amylase; test: In vitro α-amylase inhibitory assay; type: biochemical; conditions: mean of three replicates ±SD
Experimental: The reaction mixture contains 20 μL of α-amylase solution (0.5 mg mL^−1) and 200 μL of sodium phosphate buffer (pH 6.9, 0.02 M). Test samples ([…]) were added (250 μL) to the reaction mixture following which; incubation was carried out for 10 min at room temperature. This was accompanied by the addition of 200 μL of 1% starch solution, and further incubated for 10 min at 25 °C. By adding 400 μL of dinitrosalicylic acid (DNS) reagent, the reaction was terminated. Lastly, it was incubated in water (70 °C, 5 min). The absorbance was recorded using an ELISA microplate reader at 540 nm. […] All the experiments were performed in triplicates. It was the reaction mixture without the test sample that served as the control for the test.[31]
The percent inhibition was calculated as:% Inhibition = [(C − T)/C] × 100C – absorbance of control, T – absorbance of sample.

[2] = molecular target: α-glucosidase; test: In vitro α-glycosidase inhibitory assay; type: biochemical; conditions: mean of three replicates ±SD
Experimental: The reaction mixture contains 50 μL of 0.1 M phosphate buffer (pH = 6.8), 10 μL of α-glucosidase enzyme and 20 μL of test samples (10–50 μg mL^−1) were taken in a 96-well plate and incubated at 37 °C for 15 min. Furthermore, 20 μL of p-nitrophenyl D-glucopyranoside solution was added as a substrate and incubated for an additional 20 min at 37 °C. 50 μL of 0.1 M Na2CO3 is added to terminate the reaction. The liberated p-nitrophenol was measured at 405 nm with an Elisa microplate reader. […] All the experiments were performed in triplicates.[31]
The inhibition was calculated in percentage as:% Inhibition = [(C − T)/C] × 100C – absorbance of control, T – absorbance of sample.

[3] = system: NIH/3T3 cells; test: MTT cytotoxicity assay; type: cell-based; conditions: 100 μmol, 24 h incubation
Experimental: The cytotoxic concentration of synthetic compounds (5a–5j) was evaluated by MTT assay. A standard MTT assay was performed with various concentrations of synthesized compounds against NIH/3T3 cells using a 96-well microplate reader at 570 nm. The cell lines were cultured in DMEM, supplemented with 10% FBS in flasks, and incubated at 37 °C with 5% CO2 in DMEM medium with streptomycin and penicillin (100 IU mL^−1) at the appropriate concentrations. The 96-well plates with media were incubated. After overnight incubation, each plate was discarded and fresh medium was added to each well with varying concentrations (5 μM, 10 μM, 25 μM, 50 μM, 100 μM) of test samples. Then, 200 μL of MTT (0.5 mg mL^−1) were put in each well and further incubated for four hours. Afterward, DMSO (100 μL) was transferred into each microplate well. The absorbance was measured at 570 nm to determine how much MTT was reduced to formazan in the cells.

[4] = system: Drosophila melanogaster; test: In vivo antihyperglycemic test in Drosophila on high sugar diet; conditions: for significance of antihyperglycemic activity: Drosophila on HSD, 18 μg g^−1 feed; for reduction in glucose levels, female flies / percent reduction in glucose levels, male flies: HSD with 18 μg g^−1 feed, 10 days
Experimental: In this study, Oregon-R flies were obtained directly from the Nitte University, Drosophila Lab, Mangalore, India, and maintained on a wheat cream-agar medium with a relative humidity of 65–70%, and a light–dark cycle of twelve hours each. Separation of males and females of one-day-old flies were cultured in, food containing high sugar diet (HSD), and different groups of food containing HSD with uniform concentrations (18 μg g^−1 feed) of the compounds 5a, 5b, 5j for 10 days. Acarbose was administered as a positive control. Twenty flies were taken and they were homogenized in 0.2 mL of ice-cold phosphate buffer saline. (pH 7.4). Homogenized samples were centrifuged at 10 000g for 15 min at 4 °C. All fly homogenates were tested for glucose concentration using the manufacturer's protocol (Agape Diagnostics Ltd, India). Throughout the experiments, the control group was maintained in the same conditions as that of other groups except for HSD and compounds. All experiments were carried out in triplicates and the results were expressed in percentages respective to the control group.[32]
The results of all the experiments (n = 3) were analyzed and expressed as mean ± standard deviation (SD). The Student's t-test was performed using GraphPad Prism software (GraphPad Software Inc., CA, USA). p values ≤ 0.05 were considered as statistically significant (*p ≤ 0.05; *p ≤ 0.01; **p ≤ 0.001).

| Molecule | IC50 [1] | IC50 [2] | melting point | percentage cell toxicity (inhibition of cellular viability) [3] | significance of antihyperglycemic activity [4] | reduction in glucose levels, female flies ([4]; whole-body homogenate) | percent reduction in glucose levels, male flies ([4]; whole-body homogenate) | reduction in glucose level ([4]; HSD along with acarbose, whole-body homogenate, sex not stated) |
| --- | --- | --- | --- | --- | --- | --- | --- | --- |
| 3-((5-(4-Aminophenyl)-1,3,4-oxadiazol-2-yl)methyl)thiazolidine-2,4-dioneone [Compound 5c] | 22.6 µM and 34.1 µM | 27.25 ± 0.23 µM | – | – | – | – | – | – |
| O=C1CSC(=O)N1Cc1nnc(-c2ccc(O)cc2O)o1 [Compound 5j, 3-((5-(2,4-Dihydroxyphenyl)-1,3,4-oxadiazol-2-yl)methyl)thiazolidine-2,4-dione] | 18.4 ± 0.21 µM | 17.2 ± 0.22 µM | 204 to 206 °C | 83% | significant | 37% | 29.05% | – |
| O=C1CSC(=O)N1Cc1nnc(-c2ccc([N+](=O)[O-])cc2)o1 [Compound 5i, 3-((5-(4-Nitrophenyl)-1,3,4-oxadiazol-2-yl)methyl)thiazolidine-2,4-dione] | 21.1 ± 0.23 µM | 25.2 ± 0.28 µM | 153 to 155 °C | – | – | – | – | – |
| O=C1CSC(=O)N1Cc1nnc(-c2ccccc2)o1 [Compound 5e, 3-((5-Phenyl-1,3,4-oxadiazol-2-yl)methyl)thiazolidine-2,4-dione] | 32.4 ± 0.46 µM | 33.5 ± 0.45 µM | 215 to 217 °C | – | – | – | – | – |
| C[C@H]1O[C@H](O[C@H]2[C@H](O)[C@@H](O)[C@@H](O[C@H]3[C@H](O)[C@@H](O)C(O)O[C@@H]3CO)O[C@@H]2CO)[C@H](O)[C@@H](O)[C@@H]1N[C@H]1C=C(CO)[C@@H](O)[C@H](O)[C@H]1O (stereo partly shown) [Acarbose, reference compound] | – | – | – | – | – | – | – | about 62% |
| O=C1CSC(=O)N1Cc1nnc(-c2ccc([N+](=O)[O-])cc2Cl)o1 [Compound 5h, 3-((5-(2-Chloro-4-nitrophenyl)-1,3,4-oxadiazol-2-yl)methyl)thiazolidine-2,4-dione] | 23.2 ± 0.31 µM | 28.2 ± 0.31 µM | 161 to 163 °C | – | – | – | – | – |
| COc1ccc(-c2nnc(CN3C(=O)CSC3=O)o2)cc1 [Compound 5f, 3-((5-(4-Methoxyphenyl)-1,3,4-oxadiazol-2-yl)methyl)thiazolidine-2,4-dione] | 39.2 ± 0.52 µM | 51.3 ± 0.83 µM | 178 to 180 °C | – | – | – | – | – |
| O=C1CSC(=O)N1Cc1nnc(-c2ccc(Cl)cc2Cl)o1 [Compound 5a, 3-((5-(2,4-Dichlorophenyl)-1,3,4-oxadiazol-2-yl)methyl)thiazolidine-2,4-dione] | 18.6 ± 0.22 µM | 17.6 ± 0.19 µM | 210 to 212 °C | – | insignificant | 12.1% | 27.7% | – |
| O=C1CSC(=O)N1Cc1nnc(-c2ccc(Cl)cc2)o1 [Compound 5g, 3-((5-(4-Chlorophenyl)-1,3,4-oxadiazol-2-yl)methyl)thiazolidine-2,4-dione] | 28.9 ± 0.36 µM | 27.25 ± 0.24 µM | 172 to 174 °C | – | – | – | – | – |
| O=C1CSC(=O)N1Cc1nnc(-c2ccc(O)cc2)o1 [Compound 5d, 3-((5-(4-Hydroxyphenyl)-1,3,4-oxadiazol-2-yl)methyl)thiazolidine-2,4-dione] | 55.4 ± 0.66 µM | 45.3 ± 0.79 µM | 192 to 194 °C | 87% | – | – | – | – |
| 3-((5-(4-Bromophenyl)-1,3,4-oxadiazol-2-yl)methyl)thiazolidine-2,4-dione [Compound 5b] | 34.1 µM and 22.6 µM | 22.25 ± 0.22 µM | – | – | significant | 7.03% | 28.4% | – |
